According to US8603498B2, “Lipo-phosphated or lipo-sulphated compound, compositions comprising it and topical uses thereof” (Sederma, S.A.S., priority 2010, dated 2013):

Tests used:
[1] = tested on: triglycerides; test: Synthesis of intracellular triglycerides in 3T3-L1 cells (enzymatic method); type: cell-based
Experimental: 3T3-L1 cells were cultivated until sub-confluence, then induced to differentiate with the appropriate mixture with or without the Lipo-Phosphomalate at different concentrations. After 3 days of incubation, the differenciation mixture is replaced by a new maintaining culture medium, in the presence or not of the Lipo-Phosphomalate. After 3 days of incubation, the quantity of intracellular triglycerides is measured by enzymatic method.

[2] = tested on: transglutaminase; test: Transglutaminase activity in keratinocytes by enzymology (fluorescent substrate); type: cell-based, human; conditions: 5 ppm, 14 days; for Enzymology % Change: vs control
Source text: At the end of the 14-day contact period, the cells were placed in contact with a fluorescent synthetic transglutaminase substrate. Metabolisation of the substrate via transglutaminase will allow the fixation in the intracellular protein matrix. After rinsing, the non fixed fluorescent substrate is eliminated and the fluorescence fixed in the cells by the enzyme is quantified.

[3] = tested on: laminin; test: Laminin synthesis by human keratinocytes (ELISA); type: cell-based; conditions: for laminin ng/10^e6cells: 3 days, supernatant
Experimental: Human keratinocytes are humains were cultivated in MW24 plates for 24 h. Cells were contacted or not with the Lipo-Phosphomalate for 3 days. Culture surpernatants were taken and an assay of the quantity of laminin was achieved. TGF-β1 was used as the positive control.

[4] = tested on: caspase-14; test: Production of caspase-14 in cultured human keratinocytes by immunolabelling; type: cell-based; conditions: for Caspase Change (%): vs control
[5] = tested on: fibroblasts; test: Lipid production in fibroblasts; type: cell-based
Source text: This lipid production by the Lipo-Phosphomalate was not observed in fibroblasts or melanocytes. It is therefore a specific effect related to the metabolism of keratinocyte during its differentiation.

[6] = tested on: CD44; test: CD44 synthesis by human keratinocytes (immunological labeling); type: cell-based; conditions: 5 ppm, 22 days
Source text: Human keratinocytes were cultivitated in 35 mm box to confluence. Cells are contacted or not with the Lipo-Phosphomalate for 22 days. At the end of this contact period, the cells are fixed and an immunological labeling of the CD44 is made using specific antibodies.

[7] = tested on: cholesterol; test: Cholesterol in keratinocytes by immunolabelling (IMF); type: cell-based, human; conditions: 5 ppm, 7 days
Experimental: Cultured human keratinocytes at confluence were placed in contact with the Lipo-Phosphomalate in a medium slightly enriched with calcium to promote the establishment of intercellular junctions and thus improve the anchorage of differentiated cells to the underlying cells. A negative control was carried out in the same medium. After a 7-day contact period, the layer was labeled with a cholesterol-specific fluorescent. The intensity of the labeling was analysed on the photos and compared to that obtained with the negative control (Table 6).

[8] = tested on: cholesterol; test: Cholesterol in keratinocytes by HPTLC; type: cell-based, human; conditions: 5 ppm, 7 days
Experimental: The same protocol was followed as before but a larger quantity of keratinocyes was used on this occasion because of the limits of detection of the apparatus. After 7 days, the layers were rinsed, lipids extracted using solvents before being deposited on a thin-layer chromatography plate using an automated device. After migration and detection, the bands were analysed and quantified based on a range of standard lipids deposited on the same plate.

[9] = tested on: collagen I; test: Synthesis of collagen I on human dermal fibroblast (immunolabeling); type: cell-based; conditions: for collagen I AFU mean: 7 days
Experimental: Normal human fibroblasts (NHF) are cultivated in MW24 plates for 24 hours. The cells are contacted or not with the Lipo-Phosphomalate of the invention at various concentrations for 7 days. The synthesis of collagen I produced by the cells is then quantified by immunolabeling fixed on the layers using a specific antibody. Quantification by image analysis is then performed on the photos. TGF-β1 is used as positive control.
An analysis of variance was performed on the data (cases treated compared with untreated cases). In the case of identity of variances, a Student't test was then performed on the means.

[10] = tested on: involucrin gene; test: DNA-Array study, involucrin gene; type: cell-based; conditions: in the presence of solubilised Lipo-Phosphomalate
Source text: In addition, a DNA-Array study has shown that the transglutaminase-1 and involucrin genes are over-expressed in the network with other genes essential for the formation of the corinfied layer in the presence of solubilised Lipo-Phosphomalate.

[11] = tested on: 3T3-L1 cells; test: Lipid incorporation by 3T3-L1 cells (oil red, image analysis); type: cell-based
Experimental: 3T3-L1 cells are sowed and cultivated for 4 days (multiplication). Follow a differentiation phase (incubation with a classic differentiation mixture) and then a maturation phase (with a maturation mixture) in the presence or not of the Lipo-Phosphomalate at different concentrations. At the end of this period, cells were washed, fixed and coloured with oil red. The cell layers were photographed digitally and the red color is quantified by image analysis. The surface percentages of red oil, reported in the table below, were established compared to untreated control cells, and the test validated by comparison to pioglytazone (10 μM), positive control for stimulation of differentiation.

SMILES: CCCCCCCCCCCCCCOC(=O)CC(OP(=O)(O)O)C(=O)O (stereo not shown) [Lipo-Phosphomalate, 2-phosphate-succinic-acid-4-tetradecyle ester]
- intracellular triglycerides % Change/control ([1]; 10 ppm): +112%; p < 0.01
- intracellular triglycerides % Change/control ([1]; 15 ppm): +210%; p < 0.01
- Enzymology Transglutaminase (UFA/10^6 cell.) [2]: 516 ± 63 UFA/10^6 cell.
- Enzymology % Change ([2]; listed as Solubilised Lipo-Phosphomalate): +124%; p < 0.01
- Enzymology % Change ([2]; listed as solubilised Lipo-Phosphomalate): ~+100%
- laminin % Variation/control ([3]; 1.67 ppm): +64%; p < 0.01
- laminin ng/10^e6cells ([3]; 1.67 ppm): 190 +/− 11 ng/10^e6cells
- laminin % Variation/control ([3]; 5 ppm): +187%; p < 0.01
- laminin ng/10^e6cells ([3]; 5 ppm): 333 +/− 10 ng/10^e6cells
- laminin % Variation/control ([3]; 8.33 ppm): +196%; p < 0.01
- laminin ng/10^e6cells ([3]; 8.33 ppm): 343 +/− 10 ng/10^e6cells
- Caspase (UFA/10^6 cell.) ([4]; 1.5 ppm): 1.13 ± 0.44 UFA/10^6 cell.
- Caspase Change (%) ([4]; 1.5 ppm): +121%; p < 0.01
- Caspase (UFA/10^6 cell.) ([4]; 5 ppm): 1.68 ± 0.64 UFA/10^6 cell.
- Caspase Change (%) ([4]; 5 ppm, listed as Solubilised Lipo-Phosphomalate): +229%; p < 0.01
- Caspase Change (%) ([4]; 5 ppm, listed as solubilised Lipo-Phosphomalate): +229%
- lipid production (cholesterol, ceramides) [5]: not observed
- CD44 % Variation/control [6]: +587%; p <
- CD44 UFA/10^6 cells [6]: 27.20 +/− 16.5 UFA/10^6 cells
- CD44 variation/control (times) [6]: 0.01 => ×7
- IMF Cholesterol (UFA/10^6 cell.) [7]: 4.98 ± 2.59 UFA/10^6 cell.
- IMF Cholesterol % Change ([7]; vs control): +107%; p < 0.04
- HPTLC Cholesterol (pg/10^6 cell.) [8]: 30.89 ± 7.20 pg/10^6 cell.
- HPTLC Cholesterol % Change ([8]; vs control): +53%; p < 0.05
- collagen I AFU mean ([9]; Eq 1%): 8.1 +/− 5.6 AFU
- collagen I % Variation/control ([9]; Eq 1%, p = 0.09): +60%;
- collagen I % Variation/control ([9]; Eq 3%): +315%;
- collagen I AFU mean ([9]; Eq 3%): 21.1 +/− 13.8 AFU
- collagen I % Variation/control ([9]; Eq 5%): +496%;
- collagen I AFU mean ([9]; Eq 5%): 30.4 +/− 14.6 AFU
- involucrin gene expression (DNA-Array) [10]: over-expressed
- surface of red oil % Change/control ([11]; 10 ppm): +171%; p < 0.01
- surface of red oil % Change/control ([11]; 15 ppm): +294%; p < 0.01
- surface of red oil % Change/control ([11]; 20 ppm): +481%; p < 0.01
